# Results taken from patent US20240025887A1, “THIENYL AND CYCLOALKYL AMINOPYRIMIDINE COMPOUNDS AS INHIBITORS OF NUAK KINASES, COMPOSITIONS AND USES THEREOF” (Ontario Institute for Cancer Research (OICR), priority 2021, published 2024).
# Experiments:
# Format in all cases: biochemical
# NUAK1 = biological target: T1, NUAK1 (Homo sapiens, UniProt O60285); test: NUAK1 counter screen
# T1 sequence (O60285 1-661): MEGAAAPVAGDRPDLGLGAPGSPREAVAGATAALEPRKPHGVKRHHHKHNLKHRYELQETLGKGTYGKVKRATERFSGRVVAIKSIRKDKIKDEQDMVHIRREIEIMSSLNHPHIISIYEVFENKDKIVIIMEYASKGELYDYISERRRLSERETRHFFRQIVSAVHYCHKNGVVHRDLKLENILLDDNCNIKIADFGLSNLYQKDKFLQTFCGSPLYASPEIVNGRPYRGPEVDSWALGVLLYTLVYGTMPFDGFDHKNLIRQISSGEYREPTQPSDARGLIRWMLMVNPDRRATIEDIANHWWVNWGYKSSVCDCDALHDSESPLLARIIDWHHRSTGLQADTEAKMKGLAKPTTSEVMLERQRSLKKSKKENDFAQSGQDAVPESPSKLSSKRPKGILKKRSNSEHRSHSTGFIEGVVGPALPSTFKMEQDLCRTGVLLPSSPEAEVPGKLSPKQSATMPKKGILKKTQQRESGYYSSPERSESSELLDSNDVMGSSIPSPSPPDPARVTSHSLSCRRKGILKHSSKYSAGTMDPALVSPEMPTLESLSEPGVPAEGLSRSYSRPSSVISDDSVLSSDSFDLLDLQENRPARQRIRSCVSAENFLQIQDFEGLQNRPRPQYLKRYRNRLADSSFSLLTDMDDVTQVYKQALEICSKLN
# Protocol: (§1) To identify small molecule NUAK inhibitors, a biochemical NUAK2 enzymatic assay was outsourced to Eurofins. This assay was done radiometrically using full-length, recombinant enzyme. NUAK2 (h) was incubated with 8 mM MOPS pH 7.0, 0.2 mM EDTA, 300 μM […], 10 mM magnesium acetate and […] (specific activity and concentration as required). The reaction was initiated by the addition of the Mg/ATP mix. After incubation for 40 minutes at room temperature, the reaction was stopped by the addition of phosphoric acid to a concentration of 0.5%. 10 μL of the reaction was then spotted onto a P30 filter mat and washed four times for 4 minutes in 0.425% phosphoric acid and once in methanol prior to drying and scintillation counting. Compounds were routinely counter screened against Aurora A and NUAK1. The results are shown in Table 1 where IC50s are reported the following ranges: A: 0.1-10 nM; B: 11-100 nM; C: 101-1000 nM; D: >1000 nM for the compounds of Formula I)
# NUAK2 (h) = biological target: T2, NUAK2 (h) (Homo sapiens, UniProt Q9H093); test: NUAK2 enzymatic assay (radiometric, Eurofins); conditions: radiometric, full-length recombinant enzyme
# T2 construct: This assay was done radiometrically using full-length, recombinant enzyme; purchased Eurofins
# T2 sequence (Q9H093 1-628): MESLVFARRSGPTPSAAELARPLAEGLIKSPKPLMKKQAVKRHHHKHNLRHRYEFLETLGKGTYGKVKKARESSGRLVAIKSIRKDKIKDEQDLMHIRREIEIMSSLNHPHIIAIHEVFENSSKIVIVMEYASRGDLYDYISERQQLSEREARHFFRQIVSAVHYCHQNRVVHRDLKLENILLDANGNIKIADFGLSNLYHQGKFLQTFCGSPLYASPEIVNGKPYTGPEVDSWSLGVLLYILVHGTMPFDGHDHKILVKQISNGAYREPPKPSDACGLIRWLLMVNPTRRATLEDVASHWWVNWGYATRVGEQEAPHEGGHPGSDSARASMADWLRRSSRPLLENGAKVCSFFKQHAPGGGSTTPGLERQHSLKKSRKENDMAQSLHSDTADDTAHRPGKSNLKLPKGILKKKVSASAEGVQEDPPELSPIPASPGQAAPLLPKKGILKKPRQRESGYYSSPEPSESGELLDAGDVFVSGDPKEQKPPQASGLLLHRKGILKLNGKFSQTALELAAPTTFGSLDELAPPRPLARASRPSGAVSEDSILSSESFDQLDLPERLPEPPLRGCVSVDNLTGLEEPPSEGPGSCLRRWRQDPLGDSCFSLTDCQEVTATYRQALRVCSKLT
# Protocol: as §1
# Aurora A = biological target: T3, Aurora A (Homo sapiens, UniProt O14965); test: Aurora A counter screen; conditions: read-out: AUR-A (IC50)
# T3 sequence (O14965 1-403): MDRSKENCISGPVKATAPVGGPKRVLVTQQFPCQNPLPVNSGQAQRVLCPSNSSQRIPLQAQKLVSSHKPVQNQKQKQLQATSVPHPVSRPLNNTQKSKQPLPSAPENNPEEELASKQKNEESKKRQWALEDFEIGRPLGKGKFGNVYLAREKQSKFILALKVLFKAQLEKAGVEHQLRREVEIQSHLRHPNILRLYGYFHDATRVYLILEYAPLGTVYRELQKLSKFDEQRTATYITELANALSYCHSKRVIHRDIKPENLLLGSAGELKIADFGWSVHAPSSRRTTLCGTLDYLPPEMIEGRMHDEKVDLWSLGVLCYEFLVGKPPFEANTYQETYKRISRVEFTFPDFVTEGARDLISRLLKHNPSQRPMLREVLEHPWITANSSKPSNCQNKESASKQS
# Protocol: as §1
IC50 (NUAK1),IC50 (NUAK2 (h)),IC50 (Aurora A),SMILES
11 to 100 nM,11 to 100 nM,101 to 1000 nM,"C[C@H]1CN(C2CCN(c3ccc(Nc4ncc(Cl)c(Nc5ccsc5C(N)=O)n4)c(OC(F)F)c3)CC2)CCN1C [Compound I-65, (S)-3-((5-chloro-2-((2-(difluoromethoxy)-4-(4-(3,4-dimethylpiperazin-1-yl)piperidin-1-yl)phenyl)amino)pyrimidin-4-yl)amino)thiophene-2-carboxamide]"
11 to 100 nM,11 to 100 nM,11 to 100 nM,"NC(=O)c1sccc1Nc1nc(Nc2ccc(N3CCC(O)CC3)cc2OC(F)F)ncc1Cl [Compound I-60, 3-((5-chloro-2-((2-(difluoromethoxy)-4-(4-hydroxypiperidin-1-yl)phenyl)amino)pyrimidin-4-yl)amino)thiophene-2-carboxamide]"
0.1 to 10 nM,0.1 to 10 nM,11 to 100 nM,"CN1CCN(C2CCN(c3ccc(Nc4ncc(Cl)c(Nc5cscc5C(N)=O)n4)c(OC(F)F)c3)CC2)CC1 [Compound I-51, 4-((5-chloro-2-((2-(difluoromethoxy)-4-(4-(4-methylpiperazin-1-yl)piperidin-1-yl)phenyl)amino)pyrimidin-4-yl)amino)thiophene-3-carboxamide]"
11 to 100 nM,11 to 100 nM,> 1000 nM,"CCN1CCN(c2ccc(Nc3ncc(Cl)c(Nc4ccsc4C(N)=O)n3)c(OC(F)F)c2)CC1 [Compound I-5, 3-((5-chloro-2-((2-(difluoromethoxy)-4-(4-ethylpiperazin-1-yl)phenyl)amino)pyrimidin-4-yl)amino)thiophene-2-carboxamide]"
0.1 to 10 nM,0.1 to 10 nM,101 to 1000 nM,"CCN1CCN(C2CCN(c3ccc(Nc4ncc(C(F)(F)F)c(Nc5ccsc5C(N)=O)n4)c(OC(F)F)c3)CC2)CC1 [Compound I-77, 3-((2-((2-(difluoromethoxy)-4-(4-(4-ethylpiperazin-1-yl)piperidin-1-yl)phenyl)amino)-5-(trifluoromethyl)pyrimidin-4-yl)amino)thiophene-2-carboxamide]"
11 to 100 nM,–,> 1000 nM,"CN1CCN(C2CCN(c3ccc(Nc4ncc(Cl)c(Nc5sccc5C(N)=O)n4)c(OC(F)F)c3)CC2)CC1 [Compound I-74, 2-((5-chloro-2-((2-(difluoromethoxy)-4-(4-(4-methylpiperazin-1-yl)piperidin-1-yl)phenyl)amino)pyrimidin-4-yl)amino)thiophene-3-carboxamide]"

# Second part, the compound before the results:
SMILES,IC50 (NUAK1),IC50 (NUAK2 (h)),IC50 (Aurora A)
"CN1CCC(N(C)c2ccc(Nc3ncc(Cl)c(Nc4ccsc4C(N)=O)n3)c(OC(F)F)c2)CC1 [Compound I-66, 3-((5-chloro-2-((2-(difluoromethoxy)-4-(methyl(1-methylpiperidin-4-yl)amino)phenyl)amino)pyrimidin-4-yl)amino)thiophene-2-carboxamide]",11 to 100 nM,11 to 100 nM,101 to 1000 nM
"Cc1cnc(Nc2ccc(N3CCN(C)CC3)cc2OC(F)F)nc1Nc1ccsc1C(N)=O [Compound I-4, 3-((2-((2-(difluoromethoxy)-4-(4-methylpiperazin-1-yl)phenyl)amino)-5-methylpyrimidin-4-yl)amino)thiophene-2-carboxamide]",11 to 100 nM,11 to 100 nM,> 1000 nM
"C[C@@H]1CN(c2ccc(Nc3ncc(Cl)c(Nc4sccc4C(N)=O)n3)c(OC(F)F)c2)C[C@H](C)N1C [Compound I-11, 2-((5-chloro-2-((2-(difluoromethoxy)-4-((3R,5S)-3,4,5-trimethylpiperazin-1-yl)phenyl)amino)pyrimidin-4-yl)amino)thiophene-3-carboxamide]",11 to 100 nM,0.1 to 10 nM,101 to 1000 nM
"CN1C[C@H]2C[C@@H]1CN2c1ccc(Nc2ncc(Cl)c(Nc3sccc3C(N)=O)n2)c(OC(F)F)c1 [Compound I-18, 2-((5-chloro-2-((2-(difluoromethoxy)-4-((1R,4R)-5-methyl-2,5-diazabicyclo[2.2.1]heptan-2-yl)phenyl)amino)pyrimidin-4-yl)amino)thiophene-3-carboxamide]",11 to 100 nM,0.1 to 10 nM,101 to 1000 nM
"NC(=O)c1sccc1Nc1nc(Nc2ccc(N3CCCC3)cc2OC(F)F)ncc1Cl [Compound I-28, 3-((5-chloro-2-((2-(difluoromethoxy)-4-(pyrrolidin-1-yl)phenyl)amino)pyrimidin-4-yl)amino)thiophene-2-carboxamide]",11 to 100 nM,101 to 1000 nM,101 to 1000 nM
"CC(C)N1C[C@@H]2C[C@H]1CN2c1ccc(Nc2ncc(Cl)c(Nc3sccc3C(N)=O)n2)c(OC(F)F)c1 (stereo in doubt) [Compound I-36, 2-((5-chloro-2-((2-(difluoromethoxy)-4-((1S,4S)-5-isopropyl-2,5-diazabicyclo[2.2.1]heptan-2-yl)phenyl)amino)pyrimidin-4-yl)amino)thiophene-3-carboxamide]",11 to 100 nM,11 to 100 nM,101 to 1000 nM
"CN1CCN(c2ccc(Nc3ncc(Cl)c(Nc4ccsc4C(N)=O)n3)c(OC(F)(F)F)c2)CC1 [Compound I-10, 3-((5-chloro-2-((4-(4-methylpiperazin-1-yl)-2-(trifluoromethoxy)phenyl)amino)pyrimidin-4-yl)amino)thiophene-2-carboxamide]",11 to 100 nM,0.1 to 10 nM,> 1000 nM
"CN1CCN(c2ccc(Nc3ncc(Cl)c(N[C@@H]4CCCC[C@@H]4C(N)=O)n3)c(C(F)(F)F)c2)CC1 [Compound I-85, (1S,2R)-2-((5-chloro-2-((4-(4-methylpiperazin-1-yl)-2-(trifluoromethyl)phenyl)amino)pyrimidin-4-yl)amino)cyclohexane-1-carboxamide]",101 to 1000 nM,11 to 100 nM,> 1000 nM
"CN1C[C@@H]2CN(c3ccc(Nc4ncc(Cl)c(Nc5ccsc5C(N)=O)n4)c(OC(F)F)c3)C[C@@H]2C1 [Compound I-57, 3-((5-chloro-2-((2-(difluoromethoxy)-4-((3aR,6aS)-5-methylhexahydropyrrolo[3,4-c]pyrrol-2(1H)-yl)phenyl)amino)pyrimidin-4-yl)amino)thiophene-2-carboxamide]",0.1 to 10 nM,0.1 to 10 nM,101 to 1000 nM
COc1cnc(Nc2ccc(N3CCN(C)CC3)cc2OC(F)F)nc1Nc1ccsc1C(N)=O [Compound I-81],101 to 1000 nM,11 to 100 nM,–
"CNC(=O)c1sccc1Nc1nc(Nc2ccc(N3CCN(C)CC3)cc2C(F)(F)F)ncc1Cl [Compound I-59, 3-((5-chloro-2-((4-(4-methylpiperazin-1-yl)-2-(trifluoromethyl)phenyl)amino)pyrimidin-4-yl)amino)-N-methylthiophene-2-carboxamide]",–,11 to 100 nM,> 1000 nM
